{
  "source": "patent US9597391B2",
  "about": "“Cyclic-dinucleotides and its conjugates as adjuvants and their uses in pharmaceutical compositions” (HELMHOLTZ_ZENTRUM FUER INFEKTIONSFORSCHUNG GMBH, priority 2005, dated 2017)",
  "format_in_all_cases": "in vivo",
  "key": {"BALB/c (H-2d) mice [1]": {"system": "BALB/c (H-2d) mice", "assay": "Serum β-gal-specific IgG ELISA after i.n. or s.c. immunization with β-gal plus adjuvant", "conditions": "i.n., β-gal 30 μg/dose with or without adjuvant 10 μg; end point titers (FIG. 11; FIG. 2)", "protocol": "Experimental protocol: six-eight weeks-old female BALB/c (H-2d) mice were purchased from Harlan Winkelmann GmbH (Borchen, Germany) and treated in accordance with local and European Community guidelines. Groups of 5 mice each were immunized on day 1, 14 and 28 with 30 μg of β-gal (Boehringer, Mannheim, Germany), alone or as an admixture with 10 μg c-diGMP or with 10 μpg c-diAMP. For intranasal (i.n.) immunization, 10 μl were applied to each naris, whereas for the s.c. injection β-gal with or without c-diGMP or c-diAMP was resuspended in a volume of 20 μl PBS per animal. Serum samples were collected at day 38 after immunization and stored at −20° C. prior to determination of β-gal-specific antibodies. 96-well Nunc-Immuno MaxiSorp assay plates (Nunc, Roskilde, Denmark) were coated with 100 μl of β-gal (Boehringer, Mannheim, Germany) at 5 μg/ml in 0.05 M carbonate buffer (pH 8.2) per well. Serial two-fold dilutions of sera in PBS with 1% BSA and 0.05% Tween 20 were added (100 μl/well), and plates incubated for 16h at 37° C. After washing, biotinylated γ-chain-specific goat anti-mouse IgG (Sigma Chemie, Deisenhofen, Germany) was added, and plates were incubated for an additional 1 h at 37° C. After four washes, 100 μl of peroxidase-conjugated streptavidin (Pharmingen) was added to cells and plates incubated at 37° C. for 30 min. After four washes, reactions were developed with ABTS in 0.1 M citrate-phosphate buffer (pH 4.35) containing 0.01% H2O2. Results for c-diGMP are shown as OD405 values after serial two-fold dilutions (FIG. 2). […] The effect of c-diGMP as an adjuvant was independent of the route of administration.\nIn contrast, in the presence of c-diAMP, i.n. administration of β-gal induced very high titers of specific IgG in all mice with titers higher than 500,000 (FIG. 11).\nIn view of the above in vitro results, additional in vivo studies have been conducted. […] Thus, the capacity of c-diGMP and c-diAMP, respectively, to stimulate efficient humoral immune responses was evaluated, by determining the serum titers of β-gal-specific antibodies in vaccinated mice."}, "spleen cells [2]": {"system": "spleen cells", "assay": "[3H]thymidine proliferation of spleen cells from vaccinated mice restimulated in vitro with β-gal", "conditions": "day 38, in vitro restimulation with β-gal", "protocol": "Experimental protocol: Spleens were removed and pooled for analysis of cellular immune responses. Cells were grown in RPMI 1640 supplemented with 10% fetal calf serum, 100 U/ml of penicillin, 50 μg/ml of streptomycin, 5×10^−5 M 2-mercaptoethanol and 1 mM L-glutamine (GIBCO BRL, Karlsruhe, Germany) and maintained at 37° C. in a humidified 5% CO2 atmosphere. Spleen cell suspensions were adjusted to 5×10^6 cells/ml in complete medium, cells were seeded with 100 μl per well in a flat-bottomed 96-well microtiter plate (Nunc) and plates were incubated for 4 days in the presence of different concentrations of soluble β-gal. That is, T cell mediated immune responses were investigated at day 38 by measuring the proliferation after in vitro restimulation with β-Gal of cells which have been recovered from spleens before. Said spleen cells were obtained from vaccinated mice—said mice where immunized as described in Example 2—and incubated in the presence of different concentrations of the soluble β-Gal antigen. Each concentration was tested in quadruplicates. During the final 18 h of culture, 1 μCi of [3H]thymidine (Amersham International, Freiburg, Germany) was added to each well. Cells were then harvested on paper filters (Filtermat A; Wallac, Freiburg, Germany) by using a cell harvester (Inotech, Wohlen, Switzerland), and the amount of incorporated [3H]thymidine into the DNA of proliferating cells was determined by a β-scintillation counter (Wallac 1450, Micro-Trilux). The results are expressed as the arithmetic mean of [^3H]thymidine uptake in cpm.\nThirty eight days following vaccination, spleens cells were purified, re-stimulated in vitro in the presence of various amounts of β-galactosidase and their proliferative capacity was estimated by measuring the incorporation of [3H]thymidine into their DNA using a β-scintillation counter."}, "spleen cells [3]": {"system": "spleen cells", "assay": "ELISPOT of cytokine producing spleen cells from vaccinated mice", "conditions": "i.n.; restimulation with CD8 epitope peptide (FIG. 10)", "protocol": "Experimental protocol: Spleens from vaccinated mice were removed and pooled for analysis of cellular immune responses. The protocol for vaccination was identical to the protocol described in Example 2. Cells were grown in RPMI 1640 supplemented with 10% fetal calf serum, 100 U/ml of penicillin, 50 μg/ml of streptomycin, 5×10^−5 M 2-mercaptoethanol and 1 mM L-glutamine (GIBCO BRL, Karlsruhe, Germany) and maintained at 37° C. in a humidified 5% CO2 atmosphere. […]\nFor coating ELISPOT plates, said plates were incubated with 100 μl/well of purified capture antibody (10 μg/ml in coating buffer) at 4° C. overnight. After 6× washing steps, the plates were blocked with 200 μl/well of complete RPMI-1640 at room temperature for 1 hour. The activated cells were seeded at 100 μl per well and incubate at 37° C., in a 5% CO2 humidified incubator for 24 hours or 48h hours. After 5× washing steps with washing buffer and 1× step with distilled water, 100 μl/well of the biotinylated detection antibody with a concentration of 1 μg/ml in Assay Diluent was added and incubated at room temperature for 2 hrs. After further washing steps 100 μl/well of the AV-HRP at 1/1000 dilution in Assay Diluent was added and incubated at room temperature for 30 minutes. After further washing steps 100 μl/well of AEC Substrate Solution was added and developed at room temperature for 10-60 minutes until visible spots appeared. After washing steps with (3×) with 200 μl/well distilled water, the plates were air-dried and analyzed by counting the spots by an ELISPOT reader. Each concentration was tested in triplicates."}, "BALB/c (H-2d) mice [4]": {"system": "BALB/c (H-2d) mice", "assay": "β-gal-specific IgA in lung and vaginal lavages of immunized mice", "conditions": "i.n. immunization, day 38, versus β-gal alone (FIG. 4, FIG. 5)", "protocol": "Experimental protocol: at day 38, mice were sacrificed and the final sampling was performed. Vaginal and lung lavages were obtained by flushing the organs with 1 ml of PBS supplemented with 50 mM EDTA, 0.1% BSA, and 10 mM PMSF. Lavages were then centrifuged to remove debris (10 min at 3000×g), and supernatant fluids were stored at −20° C. To determine the concentration of total IgA present in the lung and vaginal lavages, serial dilutions of the corresponding samples were incubated in microtiter plates that were previously coated with goat anti-mouse IgA (Sigma Chemie), as capture antibodies (100 μl/well). Serial dilutions of purified mouse IgA (Sigma Chemie) were used to generate a standard curve.\nTo investigate the capacity of c-diGMP and c-diAMP, respectively, to stimulate mucosal responses against antigens co-administered by the i.n. and s.c. route, the production of β-gal-specific IgA in lung was analyzed (FIG. 5 for c-diAMP and FIG. 4 for c-diGMP) from immunized animals, immunized according to the protocol described in Example 2."}},
  "data": [
    {"substance": "β-gal: soluble model antigen β-galactosidase (Boehringer), given alone as comparator without adjuvant", "values": [
      {"measurement": "β-gal specific IgG titer in sera, i.n. administration", "setting": "BALB/c (H-2d) mice [1]", "result": "very low antibody titers"},
      {"measurement": "proliferation of spleen cells, i.n. immunization", "setting": "spleen cells [2]; i.n., low amounts of antigen (FIG. 6)", "result": "failed to induce detectable cellular proliferation"},
      {"measurement": "proliferation of spleen cells, s.c. immunization", "setting": "spleen cells [2]; s.c., [3H]thymidine (FIG. 6)", "result": "significant proliferative response"},
      {"measurement": "IFNγ producing cells, i.n. vaccination", "setting": "spleen cells [3]", "result": "scarcely detectable"},
      {"measurement": "β-gal-specific IgA in lung lavages", "setting": "BALB/c (H-2d) mice [4]", "result": "weak production"}
    ]}
  ]
}
